From patent publication US9511055B2, “Angiotensin in treating brain conditions” (TARIX PHARMACEUTICALS LTD., priority 2012, dated 2016)

Experiments:
Format in all cases: in vivo
[1] = system: MCAO rat model of ischemic stroke; test: Modified Neurological Rating Scale (mNRS) evaluation after tMCAO; settings: Example 1, continuous s.c. Alzet pump
Procedure: (§1) For the purposes of this example, Transient middle cerebral artery occlusion (tMCAO) procedure Day is defined as “Day 1” in this study. On the day of surgery anesthesia were induced with 4% isoflurane in a mixture of 70% N2O and 30% O2 and maintained with 1.5-2% isoflurane.
The tMCAO procedures were performed according to the method described R. Schmid-Elsaesser et al. Briefly, the right CCA (Common Carotid Artery) was exposed through a midline neck incision and carefully dissected free from surrounding nerves and fascia—from its bifurcation to the base of the skull. The occipital artery branches of the ECA (External Carotid Artery) were then isolated, and these branches were dissected and coagulated. The ECA was dissected further distally and coagulated along with the terminal lingual and maxillary artery branches, which was then divided. The ICA (Internal Carotid Artery) was isolated and carefully separated from the adjacent vagus nerve, and the pterygopalatine artery was ligated close to its origin with a 5-0 nylon suture (SMI, Belgium). Next, a 4-0 silk suture was tied loosely around the mobilized ECA stump, and a 4 cm length of 4-0 monofilament nylon suture (the tip of the suture was blunted by using a flame, and the suture was coated with polylysine, prior to insertion) was inserted through the proximal ECA into the ICA and thence into the circle of Willis, effectively occluding the MCA. The surgical wound was closed and the animals were returned to their cages to recover from anesthesia. One hour and a half after occlusion rats were re-anesthetized, the monofilament was withdrawn to allow reperfusion, the surgical wound was closed and rats were returned to their cages. […]
The Modified Neurological Rating Scale (mNRS) was administered by an individual who was unaware of the drug/dose given (blind test). […] Four groups were analyzed in this test, a control group (receiving only PBS for 49 days), a group receiving 50 μg/kg PanCyte for 49 days, a group receiving 500 μg/kg PanCyte for 49 days, and a group receiving 50 μg/kg PanCyte for 14 days. […]

[2] = system: MCAO rat model of ischemic stroke; test: Stepping test (forelimb akinesia) after tMCAO; settings: for stepping test performance vs control: day 15
Procedure: as §1
(§2) The tMCAO procedures were performed according to the method described R. Schmid-Elsaesser et al. Briefly, the right CCA (Common Carotid Artery) was exposed through a midline neck incision and carefully dissected free from surrounding nerves and fascia—from its bifurcation to the base of the skull. The occipital artery branches of the ECA (External Carotid Artery) were then isolated, and these branches were dissected and coagulated. The ECA was dissected further distally and coagulated along with the terminal lingual and maxillary artery branches, which was then divided. The ICA (Internal Carotid Artery) was isolated and carefully separated from the adjacent vagus nerve, and the pterygopalatine artery was ligated close to its origin with a 5-0 nylon suture (SMI, Belgium). Next, a 4-0 silk suture was tied loosely around the mobilized ECA stump, and a 4 cm length of 4-0 monofilament nylon suture (the tip of the suture was blunted by using a flame, and the suture was coated with polylysine, prior to insertion) was inserted through the proximal ECA into the ICA and thence into the circle of Willis, effectively occluding the MCA. The surgical wound was closed and the animals were returned to their cages to recover from anesthesia. One hour and a half after occlusion rats were re-anesthetized, the monofilament was withdrawn to allow reperfusion, the surgical wound was closed and rats were returned to their cages.
(§3) Animals were subjected to a modified Modified Neurological Rating Scale (mNRS) at 24 hours post reperfusion. Only animals with an overall score of ≧10 are included in this study. Animals were allocated into the test groups, according to the mNRS results on day 2, in order to have similar distribution of rats performance between groups. Started on day 2, 24 hours post-surgery, each animal is implanted subcutaneously with osmotic Alzet pump and is treated by continuous PanCyte administration (2.5 mg/ml or 25 mg/ml in PBS; SEQ ID NO:22).
Animals were tested for forelimb akinesia in a stepping test. The animal was held with its hind limbs fixed with one hand and the forelimb not monitored with the other, while the unrestrained fore-paw touches a table. The number of adjusting steps were counted while the animal was moved sideways along the table surface (85 cm in approximately five seconds), in the forehand & backhand direction for both forelimbs. […] Four groups were analyzed in this test, a control group (receiving only PBS for 49 days), a group receiving 50 μg/kg PanCyte for 49 days, a group receiving 500 μg/kg PanCyte for 49 days, and a group receiving 50 μg/kg PanCyte for 14 days.
(§4) Animals were subjected to a modified Modified Neurological Rating Scale (mNRS) at 24 hours post reperfusion. Only animals with an overall score of ≧10 were included in this study. Animals were allocated into the test groups, according to the mNRS results on day 2, in order to have similar distribution of rats performance between groups. Starting on day 2, 24 hours post-surgery, animals in groups 4, 5 and 7 were implanted subcutaneously with an osmotic Alzet pump and treated with either 500 μg/kg TXA127 (SEQ ID NO:1), 500 μg/kg PanCyte (SEQ ID NO:22), or 50 μg/kg Linear PanCyte (SEQ ID NO:6). Animals in groups 2, 3 and 6 received 500 μg/kg or 1,000 μg/kg TXA127 or 500 μg/kg PanCyte, administered subcutaneously via daily injection. Animals in group 1 were treated with a daily subcutaneous injection of a PBS (vehicle).
Animals were tested for forelimb akinesia in a stepping test (ST). The animal was held with its hind limbs fixed with one hand and the forelimb not to be monitored with the other, while the unrestrained fore-paw touches the table. […]

[3] = system: MCAO rat model of ischemic stroke; test: Body swing test after tMCAO; settings: for body swing test performance vs control: continuous s.c. Alzet pump; for body swing test performance vs vehicle control: Example 2, 28 days
Procedure: as §1, §2, §3
The rat was held approximately one inch from the base of its tail. It was then elevated to an inch above a surface of a table. The rat was held in the vertical axis, defined as no more than 10° to either the left or the right side. A swing was recorded whenever the rat moved its head out of the vertical axis to either side. Before attempting another swing, the rat had to return to the vertical position for the next swing to be counted. Twenty (20) total swings were counted. A normal rat typically has an equal number of swings to either side. Following focal ischemia, rats tend to swing to the contralateral side (left side in this example). Body swing scores are expressed as a percentage of rightward over total swings. […] Four groups were analyzed in this test, a control group (receiving only PBS for 49 days), a group receiving 50 μg/kg PanCyte for 49 days, a group receiving 500 μg/kg PanCyte for 49 days, and a group receiving 50 μg/kg PanCyte for 14 days.
as §4, with “Animals in group 1 were treated with a daily subcutaneous injection of a PBS (vehicle).” left out

## CCC(C)C1NC(=O)C(NC(=O)C(NC(=O)C(CCCNC(=N)N)NC(=O)C(N)CC(=O)O)C(C)C)CSCC(C(=O)O)NC(=O)C(Cc2c[nH]cn2)NC1=O (centres unmarked) [PanCyte, Asp^1-Arg^2-Val^3-Ser^4-Ile^5-His^6-Cys^7 (SEQ ID NO: 22)]
[1]; 50 μg/kg for 49 days, days 8 and 15
  mNRS performance vs control: statistically improved performance on days 8 and 15
[1]; 500 μg/kg for 49 days, day 22
  mNRS performance vs control: statistically improved performance on day 22
[1]; each PanCyte group (50 μg/kg 49 days, 500 μg/kg 49 days, 50 μg/kg 14 days), day 29 and 36
  mNRS performance vs control: improved performance on the test by day 29
[2]; Example 1, 50 μg/kg for 14 days, continuous s.c. Alzet pump, trending toward improvement
  stepping test performance vs control: did not reach statistically significant levels
[2]; Example 1, 50 μg/kg for 49 days, continuous s.c. Alzet pump
  stepping test performance vs control: performed significantly better than controls
[2]; Example 1, 500 μg/kg for 49 days, continuous s.c. Alzet pump, trending toward improvement
  stepping test performance vs control: did not reach statistically significant levels
[2]; Example 1, each PanCyte group (50 μg/kg 49 days, 500 μg/kg 49 days, 50 μg/kg 14 days), continuous s.c. Alzet pump, day 22, continued through day 36
  stepping test performance (number of adjusting steps) vs control: increased performance of rats by day 22
[2]; Example 2, all experimental conditions (s.c. daily injection or Alzet pump, 28 days), by Day 21 post-surgery
  stepping test performance vs vehicle control: significantly improved the performance of treated rats
[3]; Example 1, 50 μg/kg for 14 days, from day 29
  body swing test performance vs control: showed statistical significance beginning on day 29
[3]; Example 1, all treatment groups, from day 8
  body swing test scores vs control: trend toward improved scores beginning on day 8
[3]; Example 1, each PanCyte group (50 μg/kg 49 days, 500 μg/kg 49 days, 50 μg/kg 14 days), day 36
  body swing test performance vs control: improved performance on the test by day 36
[3]; 500 μg/kg daily s.c. injection, Day 28
  body swing test performance vs vehicle control: significant improvement in performance by Day 28
[3]; PanCyte Alzet group, 500 μg/kg s.c. Alzet pump, Day 21
  body swing test performance vs vehicle control: showed improvement by Day 21
[3]; PanCyte Alzet group, 500 μg/kg s.c. Alzet pump, Day 28
  body swing test performance vs vehicle control: significant improvement in performance by Day 28
